# Assay results from the Kinase Knowledgebase extract (Sharma et al. 2016).
# pIC50: −log10 of the molar value.
# Target: PIK3CA (human) (UniProt P42336)
# Assay: Inhibition of PIK3CA Kinase Activity
# Sequence of PIK3CA (human) (P42336 whole entry, looked up): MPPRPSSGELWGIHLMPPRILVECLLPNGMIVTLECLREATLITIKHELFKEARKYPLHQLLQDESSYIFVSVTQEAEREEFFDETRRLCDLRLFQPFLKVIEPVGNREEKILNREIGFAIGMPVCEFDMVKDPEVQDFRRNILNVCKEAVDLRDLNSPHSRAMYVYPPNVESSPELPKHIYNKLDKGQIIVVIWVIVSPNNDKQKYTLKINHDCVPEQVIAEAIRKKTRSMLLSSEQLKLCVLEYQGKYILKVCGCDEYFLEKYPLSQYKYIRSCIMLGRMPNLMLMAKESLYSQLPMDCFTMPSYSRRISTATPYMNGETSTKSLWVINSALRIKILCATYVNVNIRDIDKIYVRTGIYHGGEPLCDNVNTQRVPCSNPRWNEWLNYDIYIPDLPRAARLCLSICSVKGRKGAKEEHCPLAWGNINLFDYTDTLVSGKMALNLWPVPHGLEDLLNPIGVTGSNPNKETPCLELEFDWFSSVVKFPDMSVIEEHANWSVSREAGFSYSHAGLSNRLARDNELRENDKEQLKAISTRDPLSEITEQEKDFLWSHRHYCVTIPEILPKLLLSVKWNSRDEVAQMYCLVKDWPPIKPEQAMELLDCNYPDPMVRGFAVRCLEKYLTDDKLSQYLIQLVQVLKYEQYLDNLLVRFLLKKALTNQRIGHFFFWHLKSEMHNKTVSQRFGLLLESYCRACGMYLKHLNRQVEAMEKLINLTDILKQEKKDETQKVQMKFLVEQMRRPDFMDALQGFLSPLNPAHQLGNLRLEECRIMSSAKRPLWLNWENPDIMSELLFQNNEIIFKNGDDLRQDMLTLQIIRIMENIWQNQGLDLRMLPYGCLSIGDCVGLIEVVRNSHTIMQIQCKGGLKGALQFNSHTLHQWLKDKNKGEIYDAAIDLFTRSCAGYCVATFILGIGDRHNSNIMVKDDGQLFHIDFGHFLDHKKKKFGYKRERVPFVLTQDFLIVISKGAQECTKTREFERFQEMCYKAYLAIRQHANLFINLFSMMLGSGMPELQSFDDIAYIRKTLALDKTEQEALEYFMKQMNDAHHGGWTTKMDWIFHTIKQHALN
row,Compound,pIC50
1,CCCc1nc2ccccc2n1-c1nc(-c2cnc(N)nc2)nc(N2CCOCC2)n1,> 6.00
2,Cc1nccn1-c1nc(-c2cnc(N)nc2)nc(N2CCOCC2)n1,> 6.00
3,CC(=O)Nc1ccc(-c2nc(N3CCOCC3)nc(-n3c(C)nc4ccccc43)n2)cn1,> 6.00
4,CCc1nc2ccccc2n1-c1nc(-c2cnc(N)nc2)nc(N2CCOCC2)n1,> 6.00
5,Cc1nccn1-c1nc(-c2cccc(O)c2)nc(N2CCOCC2)n1,> 6.00
6,Cc1ccn(-c2nc(-c3cnc(N)nc3)nc(N3CCOCC3)n2)n1,> 6.00
7,Nc1ccc(-c2nc(N3CCOCC3)nc(-n3ccc(C(F)(F)F)n3)n2)cn1,> 6.00
8,COc1nc(N)ncc1-c1nc(N2CCOCC2)nc(-n2ccnc2C)n1,> 6.00
9,Cc1nc2ccccc2n1-c1nc(-c2ccc(N)nc2)nc(N2CCOCC2)n1,> 6.00
10,Cc1ccn(-c2nc(-c3ccc(N)nc3)nc(N3CCOCC3)n2)n1,> 6.00
11,CCCCc1nccn1-c1nc(-c2cnc(N)nc2)nc(N2CCOCC2)n1,> 6.00
12,Nc1ncc(-c2nc(N3CCOCC3)nc(-n3ncc4c3CCCC4)n2)cn1,> 6.00
13,Cc1cc(C)n(-c2nc(-c3ccc(N)nc3)nc(N3CCOCC3)n2)n1,> 6.00
14,Cc1nc2ccccc2n1-c1nc(-c2cccc(O)c2)nc(N2CCOCC2)n1,> 6.00
15,Cc1nc(N)ncc1-c1nc(N2CCOCC2)nc(-n2ccnc2C(C)C)n1,> 6.00
16,Cc1nc2ccccc2n1-c1nc(-c2cccc(CO)c2)nc(N2CCOCC2)n1,> 6.00
17,Cc1nccn1-c1nc(-c2cccc(CO)c2)nc(N2CCOCC2)n1,> 6.00

row,Compound,pIC50
1,Nc1ncc(-c2nc(N3CCOCC3)nc(-n3ccc(C(F)(F)F)n3)n2)cn1,> 6.00
2,Oc1cccc(-c2nc(N3CCOCC3)nc(-n3c(C(F)F)nc4ccccc43)n2)c1,> 6.00
3,Nc1ccc(-c2nc(N3CCOCC3)nc(-n3ncc4c3CCCC4)n2)cn1,> 6.00
4,Cc1nc2ccccc2n1-c1nc(-c2cnc(N)nc2)nc(N2CCOCC2)n1,> 6.00
5,Cc1nc2ccccc2n1-c1nc(-c2cc(O)cc(F)c2)nc(N2CCOCC2)n1,> 6.00
6,CCCCc1nc2ccccc2n1-c1nc(-c2cnc(N)nc2)nc(N2CCOCC2)n1,> 6.00
7,COCCNC(=O)c1cc2ccccc2n1-c1nc(-c2cccc3[nH]ccc23)nc(N2CCOCC2)n1,> 6.00
8,O=C(NC1CC1)c1cc2ccccc2n1-c1nc(-c2cccc3[nH]ccc23)nc(N2CCOCC2)n1,> 6.00
9,CC(C)c1nccn1-c1nc(-c2cnc(N)nc2)nc(N2CCOCC2)n1,> 6.00
10,C[C@H]1COCCN1c1nc(-c2cnc(N)nc2)nc(-n2c(C(F)F)nc3ccccc32)n1,> 6.00
11,CC(C)c1nc2ccccc2n1-c1nc(-c2cnc(N)nc2)nc(N2CCOCC2)n1,> 6.00
12,Nc1ncc(-c2nc(N3CCOCC3)nc(-n3c(C(F)F)nc4ccccc43)n2)cn1,> 6.00
13,CCc1nccn1-c1nc(-c2cnc(N)nc2)nc(N2CCOCC2)n1,> 6.00
14,N#CCCc1nccn1-c1nc(-c2cnc(N)nc2)nc(N2CCOCC2)n1,> 6.00
15,Cc1cc(C(F)(F)F)n(-c2nc(-c3ccc(N)nc3)nc(N3CCOCC3)n2)n1,> 6.00
16,Cc1cc(C(F)(F)F)n(-c2nc(-c3cnc(N)nc3)nc(N3CCOCC3)n2)n1,> 6.00

# Now from value to compound:
row,pIC50,Compound
1,> 6.00,N#CCCc1nccn1-c1nc(-c2cccc3[nH]ccc23)nc(N2CCOCC2)n1
2,> 6.00,CC(C)c1nc2ccccc2n1-c1nc(-c2cccc3[nH]ccc23)nc(N2CCOCC2)n1
3,> 6.00,CCc1nc(C)cn1-c1nc(-c2cccc3[nH]ccc23)nc(N2CCOCC2)n1
4,> 6.00,CCCc1nccn1-c1nc(-c2cccc3[nH]ccc23)nc(N2CCOCC2)n1
5,> 6.00,C#Cc1cn(-c2nc(-c3cccc4[nH]ccc34)nc(N3CCOCC3)n2)c(CC)n1
6,> 6.00,CCc1cn(-c2nc(-c3cccc4[nH]ccc34)nc(N3CCOCC3)n2)c(CC)n1
7,> 6.00,Cc1ccc2c(c1)ncn2-c1nc(-c2cccc3[nH]ccc23)nc(N2CCOCC2)n1
8,> 6.00,CCc1nc(C#Cc2ccccn2)cn1-c1nc(-c2cccc3[nH]ccc23)nc(N2CCOCC2)n1
9,> 6.00,c1cc(-c2nc(N3CCOCC3)nc(-n3cnc(CN4CCCC4)c3)n2)c2cc[nH]c2c1
10,> 6.00,CCc1nc2ccccc2n1-c1nc(-c2cccc3[nH]ccc23)nc(N2CCOCC2)n1
11,> 6.00,Cc1nccn1-c1nc(-c2cccc3[nH]ncc23)nc(N2CCOCC2)n1
12,> 6.00,c1ccc2c(c1)nc(C1CC1)n2-c1nc(-c2cccc3[nH]ccc23)nc(N2CCOCC2)n1
13,> 6.00,Cc1nccn1-c1nc(-c2cccc3[nH]ccc23)nc(N2CCOCC2)n1
14,> 6.00,N#CC=Cc1nccn1-c1nc(-c2cccc3[nH]ccc23)nc(N2CCOCC2)n1
15,> 6.00,O=C(O)c1cc2ccccc2n1-c1nc(-c2cccc3[nH]ccc23)nc(N2CCOCC2)n1
16,> 6.00,CCc1nccn1-c1nc(-c2ccnc3[nH]ccc23)nc(N2CCOCC2)n1
17,> 6.00,Cc1nc(CNC2CC2)cn1-c1nc(-c2cccc3[nH]ccc23)nc(N2CCOCC2)n1
18,> 6.00,CCCCN(C)Cc1cn(-c2nc(-c3cccc4[nH]ccc34)nc(N3CCOCC3)n2)c(C)n1
19,> 6.00,CC#Cc1cn(-c2nc(-c3cccc4[nH]ccc34)nc(N3CCOCC3)n2)c(CC)n1
20,> 6.00,CCN(CC)CCN(C)Cc1cn(-c2nc(-c3cccc4[nH]ccc34)nc(N3CCOCC3)n2)cn1
21,> 6.00,CCc1nc(C)c(CO)n1-c1nc(-c2cccc3[nH]ccc23)nc(N2CCOCC2)n1
22,> 6.00,c1ccc(-c2nccn2-c2nc(-c3cccc4[nH]ccc34)nc(N3CCOCC3)n2)cc1
23,> 6.00,CCCCc1nc2ccccc2n1-c1nc(-c2cccc3[nH]ccc23)nc(N2CCOCC2)n1

row,pIC50,Compound
1,> 6.00,c1cc(-c2nc(N3CCOCC3)nc(-n3ccnc3)n2)c2cc[nH]c2c1
2,> 6.00,COC(=O)CCc1nc2ccccc2n1-c1nc(-c2cccc3[nH]ccc23)nc(N2CCOCC2)n1
3,> 6.00,CCCc1nccn1-c1nc(-c2ccnc3[nH]ccc23)nc(N2CCOCC2)n1
4,> 6.00,Nc1ccc2c(c1)nc(C(F)(F)F)n2-c1nc(-c2cccc3[nH]ccc23)nc(N2CCOCC2)n1
5,> 6.00,Cc1nc2ccccc2n1-c1nc(-c2cccc3[nH]ccc23)nc(N2CCOCC2)n1
6,> 6.00,Cc1nc(CO)cn1-c1nc(-c2cccc3[nH]ccc23)nc(N2CCOCC2)n1
7,> 6.00,CC(C)Cc1nccn1-c1nc(-c2cccc3[nH]ccc23)nc(N2CCOCC2)n1
8,> 6.00,Cc1ccn(-c2nc(-c3cccc4[nH]ccc34)nc(N3CCOCC3)n2)n1
9,> 6.00,CCCCc1nccn1-c1nc(-c2cccc3[nH]ccc23)nc(N2CCOCC2)n1
10,> 6.00,CC(C)c1nccn1-c1nc(-c2cccc3[nH]ccc23)nc(N2CCOCC2)n1
11,> 6.00,c1ccc(Cc2nccn2-c2nc(-c3cccc4[nH]ccc34)nc(N3CCOCC3)n2)cc1
12,> 6.00,FC(F)c1nc2ccccc2n1-c1nc(-c2cccc3[nH]ccc23)nc(N2CCOCC2)n1
13,> 6.00,Cc1nc(CN2CCCC2)cn1-c1nc(-c2cccc3[nH]ccc23)nc(N2CCOCC2)n1
14,> 6.00,COCCNCc1cn(-c2nc(-c3cccc4[nH]ccc34)nc(N3CCOCC3)n2)c(C)n1
15,> 6.00,Cc1cn(-c2nc(-c3cccc4[nH]ccc34)nc(N3CCOCC3)n2)cn1
16,> 6.00,CCCCN(C)Cc1c(C)nc(CC)n1-c1nc(-c2cccc3[nH]ccc23)nc(N2CCOCC2)n1
17,> 6.00,FC(F)(F)c1nc2ccccc2n1-c1nc(-c2cccc3[nH]ccc23)nc(N2CCOCC2)n1
18,> 6.00,CCCc1nc2ccccc2n1-c1nc(-c2cccc3[nH]ccc23)nc(N2CCOCC2)n1
19,> 6.00,OCc1cn(-c2nc(-c3cccc4[nH]ccc34)nc(N3CCOCC3)n2)cn1
20,> 6.00,Cc1cc(C)n(-c2nc(-c3cccc4[nH]ccc34)nc(N3CCOCC3)n2)n1
21,> 6.00,CCCc1cn(-c2nc(-c3cccc4[nH]ccc34)nc(N3CCOCC3)n2)c(CC)n1
22,> 6.00,CCc1nccn1-c1nc(-c2cccc3[nH]ccc23)nc(N2CCOCC2)n1
23,> 6.00,C=Cc1nccn1-c1nc(-c2cccc3[nH]ccc23)nc(N2CCOCC2)n1
